Test results as given in ChEMBL document CHEMBL1201862, “PubChem BioAssay data set” (2004).
Active and inactive are the calls of the source.

How the values were obtained:
[1] = inhibitors of SNCA 5'UTR-driven translation, confirmation, luminescence, H4 neuroglioblastoma cells, dose confirmation (AID 2454); assay type: functional, cell-based;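 also: H4 neuroglioblastoma cells carrying an alpha-synuclein 5'UTR luciferase reporter; potency for inhibition of the luciferase signal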
[2] = system: BJ; assay: cells; assay type: functional, cell-based; settings: Homo sapiens
[3] = cells; assay type: functional, cell-based
[4] = luciferase reporter signal reduction – luminescence, H4-C neuroglioblastoma cells, dose response (AID 2458); assay type: functional, cell-based;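 also: H4 neuroglioblastoma cells stably carrying a luciferase reporter gene fusion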
[5] = system: BJ; assay: cytotoxicity toward BJ-TERT-LT-ST fibroblasts, dose response, cell-based, RAS-independent, luminescence (AID 1935); assay type: functional; settings: Homo sapiens;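 also: BJ fibroblasts immortalized with TERT plus LT and ST oncogenes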
[6] = inhibitors of firefly luciferase expression or activity, dose response, H4 neuroglioma cells, luminescence (AID 1990); assay type: functional, cell-based
[7] = system: J774.A1; assay: Confirmation of image-based Screening Assay for Inhibitors of Phagocytosis. [Related pubchem assays (depositor defined):AID1029, AID1643]; assay type: functional, cell-based; settings: Mus musculus
[8] = inhibitors of SNCA 5'UTR-driven reporter translation, confirmation, H4 neuroglioma cells, luminescence (AID 1988); assay type: functional, cell-based
[9] = system: BJ; assay: cytotoxicity toward BJ-TERT fibroblasts, dose response, cell-based, RAS-independent, luminescence (AID 1933); assay type: functional; settings: Homo sapiens
[10] = cytotoxicity toward DRD oncogenic fibroblasts, dose response, cell-based, non-viral oncogenic, luminescence (AID 1934); assay type: functional; settings: Homo sapiens
[11] = molecular target: Beta-galactosidase (Escherichia coli, UniProt Q8VNN2); assay: beta-galactosidase enzyme inhibitors and activators, dose response, artefact control for CCR6 antagonist project, biochemical, E. coli enzyme, set 3 (AID 504712); assay type: functional
Chain of Beta-galactosidase (Q8VNN2 whole entry): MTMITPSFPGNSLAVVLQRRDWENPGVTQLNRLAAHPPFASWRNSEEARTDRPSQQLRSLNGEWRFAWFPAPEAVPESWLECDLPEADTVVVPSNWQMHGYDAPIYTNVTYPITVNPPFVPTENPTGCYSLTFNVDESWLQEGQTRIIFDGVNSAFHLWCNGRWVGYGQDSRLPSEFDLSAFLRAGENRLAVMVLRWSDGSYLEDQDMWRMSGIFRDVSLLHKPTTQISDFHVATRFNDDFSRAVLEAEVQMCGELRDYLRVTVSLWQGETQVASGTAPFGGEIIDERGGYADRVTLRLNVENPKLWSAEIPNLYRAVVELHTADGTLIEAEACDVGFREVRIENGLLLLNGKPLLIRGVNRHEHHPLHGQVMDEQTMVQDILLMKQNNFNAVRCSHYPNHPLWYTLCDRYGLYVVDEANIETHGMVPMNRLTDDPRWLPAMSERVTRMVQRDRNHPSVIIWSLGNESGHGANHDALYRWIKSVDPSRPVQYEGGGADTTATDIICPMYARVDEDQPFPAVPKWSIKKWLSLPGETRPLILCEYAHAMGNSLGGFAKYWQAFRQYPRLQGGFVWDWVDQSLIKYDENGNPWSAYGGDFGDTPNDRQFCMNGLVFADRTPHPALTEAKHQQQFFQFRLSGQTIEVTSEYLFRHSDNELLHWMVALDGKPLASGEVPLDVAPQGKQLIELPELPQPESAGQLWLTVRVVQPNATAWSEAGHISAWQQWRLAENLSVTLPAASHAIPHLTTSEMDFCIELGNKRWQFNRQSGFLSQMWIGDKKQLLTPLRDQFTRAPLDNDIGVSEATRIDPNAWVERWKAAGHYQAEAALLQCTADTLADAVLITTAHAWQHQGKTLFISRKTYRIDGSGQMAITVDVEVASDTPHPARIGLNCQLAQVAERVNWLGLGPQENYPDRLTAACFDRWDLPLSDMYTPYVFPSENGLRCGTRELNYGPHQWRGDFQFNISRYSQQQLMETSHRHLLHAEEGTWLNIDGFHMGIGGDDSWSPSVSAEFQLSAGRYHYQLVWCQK

[12] = Luminescence Cell-Based Dose Retest to Confirm Inhibitors of Cancer Stem Cells. [Related pubchem assays (depositor defined):AID2717, AID2721]; assay type: functional; settings: Homo sapiens
[13] = molecular target: C-C chemokine receptor type 6 (Homo sapiens, UniProt P51684); assay: CCR6 receptor antagonists, dose response, cell-based, luminescent beta-arrestin readout (AID 504728); assay type: functional
Chain of C-C chemokine receptor type 6 (P51684 whole entry): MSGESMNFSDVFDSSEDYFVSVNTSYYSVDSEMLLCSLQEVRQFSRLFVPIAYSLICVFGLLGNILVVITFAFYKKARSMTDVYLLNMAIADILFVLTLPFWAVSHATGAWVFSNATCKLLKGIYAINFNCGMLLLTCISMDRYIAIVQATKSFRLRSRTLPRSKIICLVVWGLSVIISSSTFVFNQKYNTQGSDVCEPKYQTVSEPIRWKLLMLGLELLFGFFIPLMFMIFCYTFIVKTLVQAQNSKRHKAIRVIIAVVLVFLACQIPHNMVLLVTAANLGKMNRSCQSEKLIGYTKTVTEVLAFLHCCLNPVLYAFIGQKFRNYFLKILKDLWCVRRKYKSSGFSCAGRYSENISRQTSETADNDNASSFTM

[14] = HepG2 cell cytotoxicity, dose response, cytotoxicity control for non-replicating M. tuberculosis project (AID 489018); assay type: functional; settings: Mycobacterium tuberculosis
[15] = system: Streptococcus sp. 'group A'; assay: growth inhibition of control SK(-) GAS strain, dose response, counter-screen for streptokinase expression inhibitor project, luminescence, kanamycin, BacTiterGlo, confirmation (AID 1900); assay type: functional, organism-based
[16] = Vero E6 cell cytotoxicity, dose response, cytotoxicity control for non-replicating M. tuberculosis project, secondary assay (AID 492998); assay type: functional, VeroE6; settings: Vero C1008
[17] = cells; assay type: functional
[18] = system: Streptococcus; assay: Group A Streptococcus viability loss, dose response, counter-screen for streptokinase expression inhibitor project, luminescence, BacTiterGlo (AID 1915); assay type: functional, organism-based;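 also: potency for reduction of bacterial viability or growth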
[19] = THP-1 cell cytotoxicity, dose response, cytotoxicity control for non-replicating M. tuberculosis project (AID 489025); assay type: functional
[20] = molecular target: Botulinum neurotoxin type F (Clostridium botulinum, UniProt P30996); assay: High-throughput multiplex microsphere dose response for inhibitors of toxin protease, specifically Botulinum neurotoxin light chain F protease, compounds from Powder Set 01.; assay type: functional, Clostridium botulinum Bf; settings: read-out: EC50_MICROM
Chain of Botulinum neurotoxin type F (P30996 1-436 limits assumed): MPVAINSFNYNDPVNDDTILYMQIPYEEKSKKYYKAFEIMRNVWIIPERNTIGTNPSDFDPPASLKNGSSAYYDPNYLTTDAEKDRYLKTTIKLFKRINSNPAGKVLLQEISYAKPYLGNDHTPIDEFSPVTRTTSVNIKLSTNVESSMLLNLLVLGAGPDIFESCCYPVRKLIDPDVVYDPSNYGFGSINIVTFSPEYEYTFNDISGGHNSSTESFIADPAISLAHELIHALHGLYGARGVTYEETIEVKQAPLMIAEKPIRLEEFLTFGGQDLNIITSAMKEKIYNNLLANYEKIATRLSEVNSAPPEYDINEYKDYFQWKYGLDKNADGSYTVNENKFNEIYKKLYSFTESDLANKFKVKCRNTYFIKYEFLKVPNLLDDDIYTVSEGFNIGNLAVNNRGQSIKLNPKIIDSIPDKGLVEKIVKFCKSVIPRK

[21] = molecular target: T1, Botulinum neurotoxin type A (Clostridium botulinum (strain Hall / ATCC 3502 / NCTC 13319 / Type A), UniProt P0DPI1); assay: High-throughput multiplex microsphere dose response for inhibitors of toxin protease, specifically Botulinum neurotoxin light chain A protease, compounds from Cherry Pick 01.; assay type: functional; settings: read-out: EC50_MICROM
T1 sequence (P0DPI1 2-448 limits assumed): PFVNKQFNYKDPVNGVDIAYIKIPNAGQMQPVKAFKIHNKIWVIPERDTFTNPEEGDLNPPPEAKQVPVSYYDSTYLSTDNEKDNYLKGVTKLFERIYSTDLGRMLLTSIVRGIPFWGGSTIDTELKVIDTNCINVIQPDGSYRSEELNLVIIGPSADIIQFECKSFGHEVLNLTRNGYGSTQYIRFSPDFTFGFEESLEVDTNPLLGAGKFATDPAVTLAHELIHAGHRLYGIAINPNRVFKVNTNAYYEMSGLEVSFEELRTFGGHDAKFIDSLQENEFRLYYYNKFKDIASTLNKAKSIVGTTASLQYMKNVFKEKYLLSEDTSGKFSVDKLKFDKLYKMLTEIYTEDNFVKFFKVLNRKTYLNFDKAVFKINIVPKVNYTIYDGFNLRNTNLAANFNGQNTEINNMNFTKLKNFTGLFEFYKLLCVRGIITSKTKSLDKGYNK

[22] = molecular target: T1, Botulinum neurotoxin type A; assay: High-throughput multiplex microsphere dose response for inhibitors of toxin protease, specifically Botulinum neurotoxin light chain A protease, compounds from Powder Set 01.; assay type: functional, Clostridium botulinum A str. ATCC 3502; settings: read-out: EC50_MICROM
[23] = molecular target: Lethal factor (Bacillus anthracis, UniProt P15917); assay: High-throughput multiplex microsphere dose response for inhibitors of toxin protease, specifically Lethal Factor protease, compounds from Powder Set 01.; assay type: functional, Bacillus anthracis str. A2012; settings: read-out: EC50_MICROM
[24] = molecular target: ORF 73 (Human herpesvirus 8, UniProt O40947); assay: inhibitors of C-LANA binding to LBS DNA, dose response, biochemical, fluorescence polarization, cherry-picked samples (AID 504725); parameters: species or system Human gammaherpesvirus 8;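 also: fluorescence polarization of a labeled DNA duplex reporting LANA DNA binding; potency is for inhibitors that block LANA binding to the DNA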
Chain of ORF 73 (O40947 whole entry): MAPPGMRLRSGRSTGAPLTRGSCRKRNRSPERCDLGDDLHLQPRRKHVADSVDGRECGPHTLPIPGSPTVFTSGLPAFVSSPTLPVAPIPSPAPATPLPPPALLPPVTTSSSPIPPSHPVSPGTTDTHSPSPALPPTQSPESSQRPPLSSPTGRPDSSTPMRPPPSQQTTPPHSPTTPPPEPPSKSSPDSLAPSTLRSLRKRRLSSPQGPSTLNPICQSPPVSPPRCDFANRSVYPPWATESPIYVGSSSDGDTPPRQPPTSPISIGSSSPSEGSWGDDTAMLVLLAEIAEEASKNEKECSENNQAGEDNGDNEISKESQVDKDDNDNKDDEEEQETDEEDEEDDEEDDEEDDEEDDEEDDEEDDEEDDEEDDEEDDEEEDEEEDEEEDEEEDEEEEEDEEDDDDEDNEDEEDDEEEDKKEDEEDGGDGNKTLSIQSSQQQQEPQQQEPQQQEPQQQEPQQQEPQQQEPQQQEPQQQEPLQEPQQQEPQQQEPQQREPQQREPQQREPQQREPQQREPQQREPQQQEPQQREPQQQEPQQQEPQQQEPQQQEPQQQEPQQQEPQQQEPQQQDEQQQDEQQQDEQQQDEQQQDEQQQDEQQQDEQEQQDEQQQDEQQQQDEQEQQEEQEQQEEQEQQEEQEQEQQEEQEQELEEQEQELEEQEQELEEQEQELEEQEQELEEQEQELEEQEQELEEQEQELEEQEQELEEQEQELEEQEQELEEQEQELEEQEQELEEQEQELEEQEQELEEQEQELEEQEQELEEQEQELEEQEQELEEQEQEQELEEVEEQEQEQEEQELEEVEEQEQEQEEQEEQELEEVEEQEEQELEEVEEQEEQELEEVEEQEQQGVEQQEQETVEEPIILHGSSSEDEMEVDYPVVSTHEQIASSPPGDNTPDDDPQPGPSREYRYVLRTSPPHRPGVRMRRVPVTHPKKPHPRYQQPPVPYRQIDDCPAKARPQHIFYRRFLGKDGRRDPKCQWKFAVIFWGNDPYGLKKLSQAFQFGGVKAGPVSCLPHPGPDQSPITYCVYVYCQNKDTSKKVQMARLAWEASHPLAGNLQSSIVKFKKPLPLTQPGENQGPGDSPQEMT

[25] = molecular target: Ephrin type-A receptor 4 (Mus musculus, UniProt Q03137); assay: inhibitors of EphA4 binding to KYL peptide, primary screen, biochemical, colorimetric, mouse EphA4 (AID 689); assay type: functional
[26] = molecular target: T2, RNA-binding protein pos-1 (Caenorhabditis elegans, UniProt G5EF15); assay: inhibitors of POS-1/mex-3 RNA binding, dose response, biochemical, fluorescence polarization (AID 1964);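 also: purified POS-1 fused to maltose binding protein made in E. coli; potency of compounds blocking POS-1 binding to fluorescent RNA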
T2 sequence (G5EF15 whole entry): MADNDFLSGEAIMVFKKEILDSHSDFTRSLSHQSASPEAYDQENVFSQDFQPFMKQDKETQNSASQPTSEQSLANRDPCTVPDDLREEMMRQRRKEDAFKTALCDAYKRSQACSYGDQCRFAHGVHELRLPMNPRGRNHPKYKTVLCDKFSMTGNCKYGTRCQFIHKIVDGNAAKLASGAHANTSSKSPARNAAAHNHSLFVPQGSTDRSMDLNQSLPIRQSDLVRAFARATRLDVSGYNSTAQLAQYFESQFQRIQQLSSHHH

[27] = molecular target: T3, Zinc finger protein mex-5 (Caenorhabditis elegans, UniProt Q9XUB2); assay: MEX-5/TCR-2 RNA interaction inhibitors, dose response, biochemical, C. elegans, fluorescence polarization (AID 1960)
T3 sequence (Q9XUB2 whole entry): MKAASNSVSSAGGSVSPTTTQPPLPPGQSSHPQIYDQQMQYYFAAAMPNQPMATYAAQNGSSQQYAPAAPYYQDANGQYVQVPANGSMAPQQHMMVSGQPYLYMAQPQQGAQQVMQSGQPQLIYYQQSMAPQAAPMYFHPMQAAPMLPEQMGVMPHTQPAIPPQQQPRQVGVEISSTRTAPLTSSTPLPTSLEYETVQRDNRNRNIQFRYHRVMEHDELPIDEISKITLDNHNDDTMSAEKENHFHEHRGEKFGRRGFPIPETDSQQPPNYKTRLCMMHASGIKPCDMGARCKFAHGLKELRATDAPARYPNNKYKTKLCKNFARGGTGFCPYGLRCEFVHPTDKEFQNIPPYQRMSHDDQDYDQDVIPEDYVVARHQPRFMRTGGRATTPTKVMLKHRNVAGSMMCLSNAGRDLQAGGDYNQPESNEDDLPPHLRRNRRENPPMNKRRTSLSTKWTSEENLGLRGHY

[28] = molecular target: Genome polyprotein (dengue virus type 2, UniProt P29990); assay: Dengue-2 NS5 methyltransferase inhibitors, primary screen, biochemical, confirmation dose response (AID 588689); assay type: functional
Chain of Genome polyprotein (P29990 2492-3391 limits assumed): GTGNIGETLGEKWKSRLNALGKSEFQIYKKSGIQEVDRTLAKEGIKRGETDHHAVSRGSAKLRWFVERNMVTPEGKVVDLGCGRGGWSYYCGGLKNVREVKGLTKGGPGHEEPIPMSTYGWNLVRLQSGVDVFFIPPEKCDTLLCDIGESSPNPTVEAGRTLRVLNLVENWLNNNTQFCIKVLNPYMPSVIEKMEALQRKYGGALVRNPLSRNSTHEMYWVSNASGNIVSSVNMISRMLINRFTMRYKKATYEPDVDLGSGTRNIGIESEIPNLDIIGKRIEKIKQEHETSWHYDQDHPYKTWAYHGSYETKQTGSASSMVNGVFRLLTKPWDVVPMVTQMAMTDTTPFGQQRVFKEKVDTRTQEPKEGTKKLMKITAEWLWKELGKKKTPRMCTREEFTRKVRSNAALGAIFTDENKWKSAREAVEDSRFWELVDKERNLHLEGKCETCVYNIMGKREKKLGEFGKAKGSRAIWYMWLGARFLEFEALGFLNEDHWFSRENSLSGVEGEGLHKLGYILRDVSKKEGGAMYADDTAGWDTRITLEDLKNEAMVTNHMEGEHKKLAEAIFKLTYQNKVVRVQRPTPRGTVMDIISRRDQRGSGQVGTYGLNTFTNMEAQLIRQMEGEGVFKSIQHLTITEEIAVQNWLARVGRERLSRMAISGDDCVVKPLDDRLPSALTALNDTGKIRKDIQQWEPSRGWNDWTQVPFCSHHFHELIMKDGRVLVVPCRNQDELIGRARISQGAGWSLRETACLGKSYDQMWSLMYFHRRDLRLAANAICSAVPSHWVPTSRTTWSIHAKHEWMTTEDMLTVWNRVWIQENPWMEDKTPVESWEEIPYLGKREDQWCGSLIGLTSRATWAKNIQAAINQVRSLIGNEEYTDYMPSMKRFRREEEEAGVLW

[29] = molecular target: 1-acylglycerol-3-phosphate O-acyltransferase ABHD5/Perilipin-5 (Homo sapiens, UniProt Q00G26+Q8WTS1); assay: Luminescence-based biochemical high throughput dose response assay for inhibitors of the interaction of the lipase co-activator protein, abhydrolase domain containing 5 (ABHD5) with perilipin-5 (MLDP; PLIN5) (2K validation set). [Related pubchem assays (depositor defined):AID493035, AID493241]
[30] = molecular target: Perilipin-1/ABHD5 (Homo sapiens, UniProt O60240+Q8WTS1); assay: Luminescence-based biochemical high throughput dose response assay for inhibitors of the interaction of the lipase co-activator protein, abhydrolase domain containing 5 (ABHD5) with perilipin-1 (PLIN1) (2K validation set). [Related pubchem assays (depositor defined):AID493027, AID493057]
[31] = molecular target: Voltage-dependent T-type calcium channel subunit alpha-1H (Homo sapiens, UniProt O95180); assay: Cav3.2 T-type channel inhibitors, cell-based, synthetic library set 1, calcium flux (AID 493022); assay type: functional
[32] = molecular target: Delta-type opioid receptor (Homo sapiens, UniProt P41143); assay: SAR Analysis of Antagonists of the DOR Receptor using an Image-Based Assay - Set 3. [Related pubchem assays (depositor defined):AID1777, AID1785]; assay type: functional;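 also: U2OS cells expressing DOR1 and beta-arrestin GFP stimulated with 100 nM SNC80; imaging of GFP-tagged beta-arrestin moving into spots after receptor activation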
Chain of Delta-type opioid receptor (P41143 whole entry): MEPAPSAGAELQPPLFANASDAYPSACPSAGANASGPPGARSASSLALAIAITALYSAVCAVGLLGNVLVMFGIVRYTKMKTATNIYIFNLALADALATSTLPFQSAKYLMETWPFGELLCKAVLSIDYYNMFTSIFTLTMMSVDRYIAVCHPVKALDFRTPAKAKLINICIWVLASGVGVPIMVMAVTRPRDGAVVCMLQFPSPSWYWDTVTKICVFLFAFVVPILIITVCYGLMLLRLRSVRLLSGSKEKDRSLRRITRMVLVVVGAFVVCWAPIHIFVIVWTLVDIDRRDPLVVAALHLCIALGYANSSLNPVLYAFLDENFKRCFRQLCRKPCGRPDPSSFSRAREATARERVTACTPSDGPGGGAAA

[33] = molecular target: T4, Kappa-type opioid receptor (Homo sapiens, UniProt P41145); assay: SAR analysis of small molecule antagonists of the kappa opioid receptor via a luminescent beta-arrestin assay - Set 6. [Related pubchem assays (depositor defined):AID1777, AID1778, AID1785, AID1786, AID1966, AID2133, AID2136, AID2285]; assay type: functional
T4 sequence (P41145 whole entry): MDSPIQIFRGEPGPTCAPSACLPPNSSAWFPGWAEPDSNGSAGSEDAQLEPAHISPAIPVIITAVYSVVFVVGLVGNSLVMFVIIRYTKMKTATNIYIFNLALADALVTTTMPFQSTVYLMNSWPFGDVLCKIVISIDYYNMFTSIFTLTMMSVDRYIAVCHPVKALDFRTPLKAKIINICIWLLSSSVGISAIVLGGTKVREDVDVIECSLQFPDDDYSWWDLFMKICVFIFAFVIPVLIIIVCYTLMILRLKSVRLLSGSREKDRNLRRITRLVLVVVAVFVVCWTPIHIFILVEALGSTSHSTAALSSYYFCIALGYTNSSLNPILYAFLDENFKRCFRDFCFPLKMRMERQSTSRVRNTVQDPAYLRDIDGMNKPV

[34] = molecular target: T4, Kappa-type opioid receptor; assay: SAR analysis of Antagonists of the Kappa Opioid Receptor (KOR) using an Image-Based Assay - Set 4. [Related pubchem assays (depositor defined):AID1777, AID1785]; assay type: functional
[35] = molecular target: T4, Kappa-type opioid receptor; assay: SAR analysis of small molecule antagonists of the kappa opioid receptor via a luminescent beta-arrestin assay - Set 4. [Related pubchem assays (depositor defined):AID1777, AID1778, AID1785, AID1786, AID1966, AID2133, AID2136, AID2285]; assay type: functional
[36] = molecular target: Mu-type opioid receptor (Homo sapiens, UniProt P35372); assay: SAR Analysis of Antagonists of the MOR Receptor using an Image-Based Assay - Set 3. [Related pubchem assays (depositor defined):AID1777, AID1785, AID1786, AID1966, AID2133, AID2136, AID2284, AID2285, AID2420]; assay type: functional

COc1ccccc1C1CC(=O)Nc2cc3c(cc21)OCCO3 (stereo unspecified)
inconclusive: EC50 [5] 1.4 µM | EC50 [6] 7.13 µM
inactive: IC50 [7] > 25 µM
> 12 µM (not active): EC50 [1] | EC50 [3]
active: EC50 [2] 19.4 µM | EC50 [4] 2.17 µM | EC50 [8] < 0.1 µM | EC50 [9] 7.46 µM | EC50 [10] 2 µM

Cc1cc(NCc2ccccn2)n2nc(C)c(-c3ccc(Cl)cc3)c2n1
active: AC50 [12] 3.86 µM | CC50 [14] 3.6 µM | EC50 [15] 2.89 µM | CC50 [16] 15.1 µM | IC50 [17] 2.1 µM | EC50 [18] 6.9 µM | CC50 [19] 6.61 µM
inactive: IC50 [11] > 66.6 µM | IC50 [13] > 66.6 µM

c1ccc(-c2cn3nc(-c4ccccc4)c(-c4ccccc4)nc3n2)cc1
active: EC50 [20] 5.3 µM | EC50 [21] 5.8 µM | EC50 [22] 0.6 µM | EC50 [23] 1.6 µM | AC50 [24] 47.3 µM | IC50 [25] 1.2 µM | EC50 [26] 2.82 µM | EC50 [27] 3.84 µM

CCOc1ccc(N2C(=O)NC(=O)/C(=C\c3cc(OC)c(OC)cc3[N+](=O)[O-])C2=O)cc1
active: IC50 [28] 27.6 µM | IC50 [29] 2.8 µM | IC50 [30] 2.21 µM

O=C(COc1ccccc1F)Nc1nnc(-c2ccc3c(c2)OCO3)o1
active: EC50 [31] 10 µM

COc1ccc(N2CCN(CCCCNC(=O)Cn3c(=O)c4cccn4c4c(C)ccnc43)CC2)cc1
active: IC50 [33] 1.59 µM | IC50 [34] 0.00521 µM | IC50 [35] 0.907 µM
inactive: IC50 [32] > 32 µM | IC50 [36] > 32 µM
